Data on five molecules can be found in paper PMC5466598, “Synthesis, Chemical Characterization and Multiscale Biological Evaluation of a Dimeric-cRGD Peptide for Targeted Imaging of αVβ3 Integrin Activity” (Scientific Reports, 2017).

Read-outs that look alike come from different tables or passages of the source.

A short description of data set [1]: Biodistribution by gamma well counting at 90 min post-injection. The following applies: Lewis, rat, iv, total radioactivity, 90 min after intravascular injection. It counts as in vivo, Lewis rats. The method, then:
To assess blood clearance and organ uptake dynamic in vivo PET-CT imaging was performed followed by image processing and analysis. Lewis rats (n = 6, Harlan Inc.) were anesthetized with 2% isoflurane, the neck area was shaved and a jugular vein cut-down procedure was performed to insert a PE-50 […] catheter for radiotracer injection. Animals were then placed in supine position on the polyacrylic imaging bed of a small animal dedicated PET-CT scanner (Inveon, Siemens Healthcare, USA). At the time of PET acquisition, animals were injected with ~22.2 MBq of (7) via the jugular vein catheter over 30 s followed by bolus infusion of 0.2 mL sterile saline. Animals underwent 60 min dynamic PET imaging (15% energy window centered at 511 keV) followed by anatomical X-ray CT imaging (80 keV, 500 μA, 100 μm spatial resolution).
For biodistribution studies, all animals were euthanized at 90 min post-injection and selected organ samples were collected for gamma well counting analysis. All collected sections were weighed and the tissue radioactivity was measured with Wizard^2 gamma well counter (Perkin-Elmer, USA). Measured ^64Cu activity was corrected for background, decay time, and tissue weight.

Data set [2] is described as follows: In vivo stability / metabolism (HPLC of urine and feces). On the set-up: species or system Lewis rats. The method, then:
Following dynamic PET-CT imaging, both urine and feces samples were collected to assess radiotracer’s metabolism and excretion route. The urine samples were collected at 90 min post injection by manual void, mixed at 1:1 ratio (v/v) with 50% CH3 CN and centrifuged at 5000 rpm. The supernatant was collected, analyzed by HPLC (C18 column, flow 1 mL/min, CH3 OH/H2 O, 5/95, v/v), and chromatograms compared to reference samples of (7) and ^64Cu-acetate. Feces samples were collected at 90 min post injection, suspended in 50% CH3 CN, homogenized and centrifuged at 5000 rpm. The supernatant was filtered and analyzed by RP-HPLC.

The target in another data set is α V β 3 receptor. As to conditions: cited from earlier work; for Kd: comparison values quoted in discussion, no reference given, read-out: binding affinity (Kd); for k off: dissociation from α V β 3 receptor.
Data set [3] concerns the target T1, αVβ3 integrin on human umbilical vein endothelial cells (HUVEC) (human (endogenous in HUVEC)), P06756.
T1 chain 1: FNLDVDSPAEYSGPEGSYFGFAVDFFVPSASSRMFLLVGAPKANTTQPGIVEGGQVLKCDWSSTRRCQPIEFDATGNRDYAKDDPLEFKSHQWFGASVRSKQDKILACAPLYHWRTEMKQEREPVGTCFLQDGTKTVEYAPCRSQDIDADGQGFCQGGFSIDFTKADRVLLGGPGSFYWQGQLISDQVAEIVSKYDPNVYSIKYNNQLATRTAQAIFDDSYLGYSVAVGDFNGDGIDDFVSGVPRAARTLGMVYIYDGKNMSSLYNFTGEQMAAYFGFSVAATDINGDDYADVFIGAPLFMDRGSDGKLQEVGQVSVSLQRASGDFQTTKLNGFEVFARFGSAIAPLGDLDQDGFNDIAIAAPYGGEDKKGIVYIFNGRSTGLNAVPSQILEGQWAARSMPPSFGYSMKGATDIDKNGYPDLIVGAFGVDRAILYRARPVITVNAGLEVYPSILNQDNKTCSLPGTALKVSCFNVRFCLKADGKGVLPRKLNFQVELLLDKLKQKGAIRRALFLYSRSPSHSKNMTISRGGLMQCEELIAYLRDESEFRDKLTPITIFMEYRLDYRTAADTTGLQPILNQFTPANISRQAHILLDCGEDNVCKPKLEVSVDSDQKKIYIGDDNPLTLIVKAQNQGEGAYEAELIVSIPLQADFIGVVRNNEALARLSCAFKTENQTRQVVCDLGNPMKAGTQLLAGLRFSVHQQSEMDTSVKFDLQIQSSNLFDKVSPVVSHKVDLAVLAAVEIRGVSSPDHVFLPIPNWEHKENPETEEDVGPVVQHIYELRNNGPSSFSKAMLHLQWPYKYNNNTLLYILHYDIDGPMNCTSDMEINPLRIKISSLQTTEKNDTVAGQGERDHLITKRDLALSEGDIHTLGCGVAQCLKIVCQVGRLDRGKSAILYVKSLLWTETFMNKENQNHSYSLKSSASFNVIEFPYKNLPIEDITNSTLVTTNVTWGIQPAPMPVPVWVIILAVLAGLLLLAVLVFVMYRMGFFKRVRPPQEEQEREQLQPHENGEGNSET
T1 chain 2: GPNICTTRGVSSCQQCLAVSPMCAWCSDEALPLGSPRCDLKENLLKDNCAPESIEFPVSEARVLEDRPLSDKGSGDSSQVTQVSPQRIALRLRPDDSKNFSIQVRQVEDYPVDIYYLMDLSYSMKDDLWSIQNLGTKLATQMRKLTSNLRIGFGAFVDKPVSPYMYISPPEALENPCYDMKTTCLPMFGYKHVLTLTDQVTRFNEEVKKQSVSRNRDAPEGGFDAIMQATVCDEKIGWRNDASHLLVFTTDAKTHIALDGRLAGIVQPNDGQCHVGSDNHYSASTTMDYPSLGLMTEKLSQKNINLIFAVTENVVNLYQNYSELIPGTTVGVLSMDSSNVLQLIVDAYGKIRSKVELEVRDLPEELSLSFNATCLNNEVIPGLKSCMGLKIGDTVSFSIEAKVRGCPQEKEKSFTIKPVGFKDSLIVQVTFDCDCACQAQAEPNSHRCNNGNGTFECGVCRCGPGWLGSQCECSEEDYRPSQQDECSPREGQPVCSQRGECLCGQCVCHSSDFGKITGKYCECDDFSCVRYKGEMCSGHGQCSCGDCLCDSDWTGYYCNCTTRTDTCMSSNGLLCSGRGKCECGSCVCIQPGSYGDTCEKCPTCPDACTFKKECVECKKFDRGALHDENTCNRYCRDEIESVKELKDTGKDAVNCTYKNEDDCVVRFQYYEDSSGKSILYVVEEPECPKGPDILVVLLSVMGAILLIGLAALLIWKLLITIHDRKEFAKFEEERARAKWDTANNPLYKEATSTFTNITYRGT
The experiment in a line: radioligand binding; HUVEC pretreated with Mn2+ (20 μM) for 10 min, washed, then (7) 0-100 nM for 1 h at room temperature; gamma well counting. The following applies: remark: other sources report otherwise.

Data set [4] deals with T1, αVβ3 integrin on human umbilical vein …. The experiment in a line: flow cytometry on cells; HUVEC pretreated with Mn2+ (20 μM) for 10 min, washed, then (8) 0-200 nM for 1 h at room temperature. As to conditions: remark: other sources report otherwise. In general terms: In flow cytometry, cells or beads pass a laser one at a time.

For the molecule `N=C(N)NCCC[C@@H]1NC(=O)[C@H](CCCCNC(=O)COCCOCCn2cc(CNC(=O)CC[C@H](NC(=O)CCOCCOCCOCCOCCNC(=S)Nc3ccc(CC4CN(CC(=O)O)CCN(CC(=O)O)CCN4CC(=O)O)cc3)C(=O)NCc3cn(CCOCCOCC(=O)NCCCC[C@@H]4NC(=O)[C@@H](Cc5ccccc5)NC(=O)[C@H](CC(=O)O)NC(=O)CNC(=O)[C@H](CCCNC(=N)N)NC4=O)nn3)nn2)NC(=O)[C@@H](Cc2ccccc2)NC(=O)[C@H](CC(=O)O)NC(=O)CNC1=O` (stereo partly shown) [compound 7], the tissue uptake at […] in data set [1] (intestines, read-out: uptake in intestines) came out at 4.62 ± 0.24 %ID/g; in data set [1] (kidney cortex, read-out: uptake in kidney cortex), 11.1 ± 2.2 %ID/g; in data set [1] (kidney medulla, read-out: uptake in kidney medulla) it was 3.66 ± 0.4 %ID/g; in data set [1] (lungs, read-out: uptake in lungs) it was 2.95 ± 0.43 %ID/g; in data set [1] (spleen, read-out: uptake in spleen), 2.25 ± 0.33 %ID/g. For the same molecule, the “activity in the feces” value in data set [2] (feces collected at 90 min post injection, RP-HPLC) is given as “no detectable activity”. Besides, the “fraction remaining intact in the urine” value in data set [2] (urine collected at 90 min post injection, HPLC) was “more than 90%”.
fibrinogen: at α V β 3 receptor, the Kd is 27 nM and the k off is 0.00098 s⁻¹.
Consider vibronectin: classical adhesive protein, for which, at α V β 3 receptor, the Kd was 64 nM and the k off is 0.00021 s⁻¹.

B1: 64Cu-NOTA-PEG4-cRGD2 (7) (peptide)
chain: cyclo(RGDFK)
modifications: also: cyclic RGD dimer: each peptide via N3-PEG2 triazole on Glu bis-propargyl amide, PEG4, NOTA, 64Cu
Take B1: in data set [3], the increase of binding against HUVECs without Mn2+ was 78%.

B2: FITC-PEG4-cRGD2 (8) (peptide)
chain: cyclo(RGDFK)
modifications: also: cyclic RGD dimer: each peptide via N3-PEG2 triazole on Glu bis-propargyl amide, PEG4, fluorescein (from FITC)
On to B2, for which, in data set [4], the increase of binding against HUVECs without Mn2+ was found to be 78%.

What is called Kd is the concentration at which binding is half-saturated.
